According to US20260091078A1, “OLIGOPEPTIDE THAT INHIBITS ANGIOGENESIS AND VASCULAR FUNCTION” (UNIVERSIDAD NACIONAL AUTONOMA DE MEXICO, priority 2019, published 2026):

How the values were obtained:
[1] = tested on: immortalized endothelial cells from the bovine umbilical vein (BUVEC E6E7); assay: Transwell Matrigel invasion of BUVEC E6E7 stimulated with VEGF; format: cell-based; settings: BUVEC E6E7, 100 nM, VEGF 50 ng mL^-1, 24 hours
Experimental: Endothelial cells were seeded over 100 μl Matrigel™ matrix (380 ng μl^−1) on a permeable ‘transwell’ support in a transwell chamber having an area of 0.33 cm^2 and 8 μm of pore-diameter at a density of 30,000 and 14,000 cells cm^−2 for BUVEC E6E7 and HUVEC cells, respectively. In the upper (luminal) compartment the cells were maintained with starving media F12K having 0.1 or 0.5% FBS for BUVEC E6E7 and HUVEC, respectively. In addition, HUVEC cells were maintained with 100 μg ml^−1 heparin. […] After 24 hours the media from both compartments and the luminal cells were removed. The abluminal cells were fixed with 100% MeOH for 10 minutes, permeabilized with TBS1x-0.5% Triton X-100, and stained with Hoechst 33342. The total number of cells in the abluminal compartment indicates the invasive activity of endothelial cells.
The inhibitory effect of 100 nM of the oligopeptide THGRGFI on the invasion of immortalized endothelial cells from the bovine umbilical vein (BUVEC E6E7) (FIG. 3A) or primary cells from the human umbilical vein (HUVEC) (FIG. 3B) stimulated in each case with VEGF (50 ng mL^−1) was compared with the inhibitory effect of 100 nM of the 123 amino acid vasoinhibin (***P<0.001).

[2] = tested on: intracellular adhesion molecule 1 (ICAM1); assay: Expression of vasoinhibin target gene ICAM1 mRNA in BUVEC E6E7 (qPCR); format: cell-based, bovine; settings: BUVEC E6E7, 100 nM, 4 hours
Experimental: Vasoinhibin induces the expression of a variety of genes via the activation of NF-KB to promote angiostatic and inflammatory effects. In particular, interleukin-1 alpha (IL-1α) and the intercellular adhesion molecule 1 (ICAM1) are vasoinhibin gene targets in the bovine endothelial cells. To evaluate the ability of the oligopeptide […] to induce the expression of IL-1α and ICAM1, BUVEC […] cells were seeded on 12 well plates with F12K-10% FBS, grown to 80% confluency, and starved with low serum (0.1% FBS) culture medium for 24 h. […] After 4 hours the RNA was extracted from the cells using Trizol (Invitrogen, Carlsbad, CA) and retrotranscribed using the High Capacity cDNA Reverse Transcription Kit (Applied Biosystems, Foster City, CA). The RT-PCR products were quantified in a Maxima SYBRgreen qPCR (Thermo Fisher Scientific) 10 μl final volume reaction mixture containing the template and 0.25 μM of each primer. The PCR amplification was done in the CFX96 Real Time PCR (BioRad), comprising a 10-minute denaturalization at 95° C., followed by 35 amplification cycles (95° C. for 10 sec, 58° C. for 30 sec, and 72° C. for 30 sec). […] The PCR data was analyzed by the 2^-ΔΔCT method and the threshold of the cycles (CT) was normalized by the constitutive housekeeping gene cyclophilin A (PPIA). […]

[3] = tested on: endothelial cell (BUVEC E6E7) monolayer; assay: Vasopermeability in vitro: transit of Evans blue linked albumin across endothelial monolayer; format: cell-based, bovine; settings: 100 nM, 50 ng ml^-1 VEGF
Experimental: For evaluating if the oligopeptide THGRGFI conserves the inhibitory properties of vasoinhibin on vascular permeability, the transit of Evans blue linked albumin across an endothelial cell (BUVEC E6E7) monolayer was evaluated as follows:
BUVEC E6E7 cells were seeded over a transwell filter (pore of 0.4 μm) at a density of 10,000 cells cm^−2. After 3 days, the monolayers were starved with low serum (0.1 FBS) for 48 hours. Subsequently, 100 nM of the vasoinhibin or the oligopeptide of the present invention were added to the upper compartment (luminal part) of the transwell support, incubated for 1 hour, and followed by the addition of 50 ng ml^−1 of VEGF. Control (Ctl) was without VEGF, vasoinhibin and the oligopeptide. […] Samples of 50 μl of the abluminal compartment were collected and replaced by fresh PBS at 10, 20, 30 and 60 minutes. The absorbance (620 nm) was measured at all time points using a plate reader iMARK (BioRad). Absorbance values confirmed the transit of Evans blue labeled albumin across the endothelial monolayer.

Ac-THGRGFI-NH2 [THGRGFI, Thr His Gly Arg Gly Phe Ile]
inhibition of invasion of endothelial cells [1]: significatively inhibited | fold-change of expression of ICAM1 mRNA versus non-treated control [2]: ~13 fold | inhibition of VEGF-induced endothelial permeability (Evans blue-albumin transit) [3]: inhibited the VEGF-induced increase in endothelial permeability
